Assays:
[1] = system: Plutella xylostella; test: Pest control effect for Plutella xylostella by plant seedling foot soil surface irrigation treatment, 24th day (Test Example 6); format: in vivo; details: 20 mg/plant; soil surface irrigation of cabbage; larvae counted on the 24th day
Experimental: (§1) Pest Control Effect for Plutella xylostella by Plant Seedling Foot Soil Surface Irrigation Treatment With Pesticidal Solution
(§2) A pesticidal solution which was prepared by dissolving 20 mg of test compound (represented by the compound Nos. in the above Examples) in 0.2 ml of acetone containing Tween 20 (trade name) and then diluting to 3 ml with ion-exchange water, was irrigated on the plant foot soil surface of 2.5-leave stage cabbage. This cabbage plant was transplanted to 1/5000a pot, and left in a facility wherein imagoes of Plutella xylostella were set free to lay eggs successively. On the 24th day after, the number of lavae on the plant was examined. The rate of pest control was calculated by the following formula. rate of pest control (%)=(1−number of pests in treated plant/number of pests in non-treated-plant)×100

[2] = system: Spodoptera litura; test: Insecticidal effect for Spodoptera litura by immersion treatment of host crop root (Test Example 4); format: in vivo; details: 25 ppm, soybean root immersion 5 days, second-instar larvae of Spodoptera litura, fifth day after; for pest or weed control at 25 ppm: 120 h, read-out: rate of dead pests (%)
In short: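 Soil was washed from the roots of soybean plants at the primary-leaf stage, and the roots were immersed in a pesticidal solution held in a light-shielded 100 ml Erlenmeyer flask. The solution was made from acetone containing Tween 20, diluted with ion-exchange water. Five days after root immersion, two primary leaves were cut and placed in a 180 ml cup with ten second-instar Spodoptera litura larvae, then kept at 25° C. Survivors were counted five days later. The rate of dead pests (%) was calculated as dead pests divided by test pests, times 100.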

[3] = system: Spodoptera litura; test: Insecticidal effect for Spodoptera litura by spraying treatment to host crop (Test Example 2); format: in vivo; details: 100 ppm, sprayed on soybean, third-instar larvae of Spodoptera litura, fifth day after; for pest or weed control at 100 ppm: 120 h, read-out: rate of dead pests (%)
In short: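 Soybean plants with fully developed primary leaves sprayed to runoff with 100 ppm compound (acetone/Tween 20, sticker water). Dried leaves given to ten third-instar larvae at 25° C.; survivors counted on day 5, mortality as dead/tested × 100.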

[4] = system: Plutella xylostella; test: Insecticidal effect for Plutella xylostella by immersion treatment of host crop root (Test Example 3); format: in vivo; details: 25 ppm, cabbage root immersed 5 days, ten second-instar larvae on stem and leaves, counted on the fifth day, 24° C.; for pest or weed control at 25 ppm: Plutella xylostella, 120 h, read-out: rate of dead pests (%)
Experimental: Insecticidal Effect for Plutella xylostella by Immersion Treatment of Host Crop Root
Roots of 4-leave stage cabbage was washed with tap water to remove soil, and then immersed in a pesticidal solution which was prepared by dissolving 5 mg of test compound (represented by the compound Nos. in the above Examples) in 0.5 ml of acetone containing Tween 20 (trade name) and then diluting it to the prescribed concentration (25 ppm) with ion-exchange water, and which was filled in a light-shielded Erlenmeyer flask (100 ml). On the fifth day after immersion of root, the root was cut off, and the stem and leaves were put into an ice cream cup (180 ml). Ten second-instar larvae of Plutella xylostella were set free therein, and the cup was left in a temperature-controlled breeding room (24° C.). On the fifth day after, the number of surviving Plutella xylostella was examined. The rate of dead pests was calculated by the following formula. rate of dead pests (%)=(number of dead pests/number of test pests)×100

[5] = system: Plutella xylostella; test: Insecticidal effect for Plutella xylostella by immersion treatment of host crop (Test Example 1); format: in vivo; details: cabbage leaf dipped, second-instar larvae of Plutella xylostella, fifth day after; for rate of dead pests (%): 100 ppm; for pest or weed control at 100 ppm: foliar, 120 h, read-out: rate of dead pests (%)
In short: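 Cabbage leaf discs dipped in 100 ppm compound (acetone/Tween 20, diluted in sticker water), dried, then infested with ten second-instar larvae and kept at 24° C. Survivors counted on day 5; mortality expressed as dead/tested pests ×100.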

[6] = system: Plutella xylostella; test: Pest control effect for Plutella xylostella by plant seedling foot soil surface irrigation treatment, 30th day (Test Example 7); format: in vivo; details: 20 mg/plant; soil surface irrigation of cabbage; larvae counted on the 30th day
Experimental: as §1
as §2, with “30th” for “24th”, “non-treated plant)×100” for “non-treated-plant)×100”

[7] = system: Plutella xylostella; test: Insecticidal effect for Plutella xylostella by seed treatment (Test Example 8); format: in vivo; details: cabbage seed treatment, leaves cut 31st day after sowing, first-instar larvae, third day after
Experimental: Insecticidal Effect for Plutella xylostella by Seed Treatment 4% aqueous solution of PVA (polyvinylalcohol) was applied to seeds of cabbage. Then the seeds were powdered with test compound (represented by the compound Nos. in the above Examples), and sowed in a Φ 6 cm in diameter Jiffy Pot (trade name). On the 31th day after sowing, the stem and leaves were cut off, and were put into an ice cream cup (180 ml). Fifteen first-instar larvae of Plutella xylostella were set free therein, and the cup was left in a temperature-controlled breeding room (24° C.). On the third day after, the number of surviving Plutella xylostella was examined. The rate of dead pests was calculated by the following formula. rate of dead pests (%)=(number of dead pests/number of test pests)×100

O=C(c1c(F)cccc1F)N1COCN(c2cc(Cl)c(F)c(Cl)c2F)C1=O [I-4]
rate of pest control (%) [1]: 92% | rate of dead pests (%) [2]: 100% | rate of dead pests (%) [3]: 100% | rate of dead pests (%) [4]: 95%

O=C(c1c(F)cccc1F)N1COCN(c2ccc(SC(F)(F)F)cc2)C1=O [I-25]
rate of pest control (%) [1]: 88% | rate of dead pests (%) [5]: 100%

O=C(c1c(F)cccc1F)N1COCN(c2ccc([S+]([O-])C(F)(F)F)cc2)C1=O (stereo not shown) [I-26]
rate of pest control (%) [1]: 100% | rate of dead pests (%) [2]: 100% | rate of dead pests (%) [3]: 100% | rate of dead pests (%) [4]: 100% | rate of dead pests (%) [5]: 100%

C[S+]([O-])c1ccc(N2COCN(C(=O)c3c(F)cccc3F)C2=O)c(F)c1 (stereo not shown) [I-29]
rate of pest control (%) [1]: 92% | rate of dead pests (%) [2]: 100% | rate of dead pests (%) [3]: 100% | rate of dead pests (%) [4]: 100% | rate of dead pests (%) [5]: 100%

O=C(c1c(F)cccc1F)N1COCN(c2ccc([S+]([O-])C(F)F)cc2F)C1=O (stereo not shown) [I-42, 3-(2,6-difluorobenzoyl)-5-[4-(difluoromethylsulfinyl)-2-fluorophenyl]tetrahydro-4H-1,3,5-oxadiazin-4-one]
rate of pest control (%) [6]: 94% | pest or weed control at 25 ppm [2]: 100% | pest or weed control at 100 ppm [3]: 100% | pest or weed control at 25 ppm [4]: 100% | pest or weed control at 100 ppm [5]: 100%

O=C(c1c(F)cccc1F)N1COCN(c2ccc(SC(F)(F)F)cc2F)C1=O [I-44, 3-(2,6-difluorobenzoyl)-5-[2-fluoro-4-(trifluoromethylthio)phenyl]tetrahydro-4H-1,3,5-oxadiazin-4-one]
rate of pest control (%) [6]: 96% | pest or weed control at 25 ppm [2]: 100% | pest or weed control at 100 ppm [3]: 100% | rate of dead pests (%) ([7]; 1 mg/seed): 100% | rate of dead pests (%) ([7]; 5 mg/seed): 97% | pest or weed control at 25 ppm [4]: 100% | pest or weed control at 100 ppm [5]: 100%

O=C(c1c(F)cccc1F)N1COCN(c2ccc([S+]([O-])C(F)(F)F)cc2F)C1=O (stereo not shown) [I-45, 3-(2,6-difluorobenzoyl)-5-[2-fluoro-4-(trifluoromethylsulfinyl)phenyl]tetrahydro-4H-1,3,5-oxadiazin-4-one]
rate of pest control (%) [6]: 98% | pest or weed control at 25 ppm [2]: 100% | pest or weed control at 100 ppm [3]: 100%

O=C(c1c(F)cccc1F)N1COCN(c2ccc([S+]([O-])C(F)(C(F)(F)F)C(F)(F)F)cc2F)C1=O (stereo not shown) [I-159, 3-(2,6-difluorobenzoyl)-5-[2-fluoro-4-(1,1,1,2,3,3,3-heptafluoro-2-propylsulfinyl)phenyl]tetrahydro-4H-1,3,5-oxadiazin-4-one]
melting point: 40 to 45 °C

O=C(c1c(F)cccc1F)N1CSCN(c2ccc(Cl)cc2)C1=O [II-1, 3-(4-chlorophenyl)-5-(2,6-difluorobenzoyl)tetrahydro-4H-1,3,5-thiadiazin-4-one]
melting point: 128.5 to 130.5 °C

O=C(c1c(F)cccc1F)N1C[S+]([O-])CN(c2ccc(Cl)cc2)C1=O (stereo not shown) [II-2, 3-(4-chlorophenyl)-5-(2,6-difluorobenzoyl)tetrahydro-4H-1,3,5-thiadiazin-4-one-1-oxide]
melting point: 220 to 220.5 °C

O=C(c1c(F)cccc1F)N1CS(=O)(=O)CN(c2ccc(Cl)cc2)C1=O [II-3, 3-(4-chlorophenyl)-5-(2,6-difluorobenzoyl)tetrahydro-4H-1,3,5-thiadiazin-4-one-1,1-dioxide]
melting point: 274 to 275 °C

O=C(c1c(F)cccc1F)N1CSCN(c2cc(Cl)c(F)c(Cl)c2F)C1=O [II-10]
rate of pest control (%) [1]: 88% | rate of dead pests (%) [2]: 100% | rate of dead pests (%) [3]: 100% | rate of dead pests (%) [5]: 100%

CC(C)N1CN(C(=O)c2c(F)cccc2F)C(=O)N(c2ccc(Cl)cc2)C1 [III-3, 1-(4-chlorophenyl)-3-(2,6-difluorobenzoyl)-5-isopropyltetrahydro-1,3,5-triazin-2(1H)-one]
melting point: 130 to 131 °C

O=C(c1c(F)cccc1F)N1CNCN(c2ccc(SC(F)(F)C(F)Cl)cc2F)C1=O (stereo not shown) [III-78]
rate of pest control (%) [1]: 83% | rate of dead pests (%) [3]: 100% | rate of dead pests (%) [5]: 100%

CN1CN(C(=O)c2c(F)cccc2F)C(=O)N(c2ccc([S+]([O-])C(F)(F)C(F)Cl)cc2F)C1 (stereo not shown) [III-84]
rate of pest control (%) [1]: 100% | rate of dead pests (%) [3]: 100% | rate of dead pests (%) [5]: 100%

C#CCN1CN(C(=O)c2c(F)cccc2F)C(=O)N(c2ccc([S+]([O-])C(F)(F)C(F)Cl)cc2F)C1 (stereo not shown) [III-89]
rate of pest control (%) [1]: 92% | rate of dead pests (%) [3]: 100% | rate of dead pests (%) [4]: 100% | rate of dead pests (%) [5]: 100%

CN1CN(C(=O)c2c(F)cccc2F)C(=O)N(c2ccc(SC(F)(F)F)cc2F)C1 [III-160, 1-(2,6-difluorobenzoyl)-3-[2-fluoro-4-(trifluoromethylthio)phenyl]-5-methyltetrahydro-1,3,5-triazin-2(1H)-one]
rate of pest control (%) [6]: 91% | pest or weed control at 100 ppm [3]: 100% | pest or weed control at 25 ppm [4]: 90% | pest or weed control at 100 ppm [5]: 100%

CN1CN(C(=O)c2c(F)cccc2F)C(=O)N(c2ccc([S+]([O-])C(F)(F)F)cc2F)C1 (stereo not shown) [III-164, 1-(2,6-difluorobenzoyl)-3-[2-fluoro-4-(trifluoromethylsulfinyl)phenyl]-5-methyltetrahydro-1,3,5-triazin-2(1H)-one]
rate of pest control (%) [6]: 95% | pest or weed control at 25 ppm [2]: 100% | pest or weed control at 100 ppm [3]: 100% | pest or weed control at 100 ppm [5]: 100%

From patent US20050159599A1, “Cyclic compound, process for producing the same, and pest control agent” (priority 2002, published 2005)
